Data on one compound can be found in PMC7710018, “Restoration of motor learning in a mouse model of Rett syndrome following long-term treatment with a novel small-molecule activator of TrkB” (Disease Models & Mechanisms, 2020).

Where two headings read alike, the source gives them in different places.

One series addresses T1, 5-HT2A (h) (Homo sapiens, UniProt P28223).
T1 construct: purchased Cerep (ExpresSProfile)
Kind of series: Cerep ExpresSProfile radioligand binding. As to conditions: 10 micromolar, antagonist radioligand. As for the experimental part:
(§1) To evaluate the relative binding specificity of LM22A-4 ([Massa et al., 2010]) and PTX-BD4-3, binding to a broad range of 55 pharmacologically relevant receptors, including numerous neurotransmitter and G-protein coupled receptors was assessed using standard radioligand competition binding assays (ExpressSProfile) performed by Cerep, Inc. (Seattle, WA, USA). In addition, ADME-Tox analysis was performed by Cerep, Inc. All experimental conditions are described on the Cerep website (www.cerep.fr).
(§2) Ligand % Inhibition of Control Specific […]
(§3) 48 Ca2+ channel (L, verapamil site) 0 ‐1.3 ‐0.7
(§4) (phenylalkylamine) (antagonist radioligand) […]
(§5) 51 Na+ channel (site 2) (antagonist radioligand) 0.6 11.7 6.1
(§6) 52 Cl‐ channel (GABA‐gated) (antagonist 2.7 ‐5.3 ‐1.3 […]
(§7) Table S1. In vitro binding assays. An ExpresSProfile screen of PTX-BD4-3 binding to a panel of pharmacologically relevant receptors was conducted by Cerep, Inc.
(§8) (Eurofins Panlabs, MO). The results are expressed as percent inhibition of control specific binding obtained in the presence of 10 micromolar PTX-BD4-3. In this assay, values below 50% indicate no specific binding of PTX-BD4-3. The assay was negative for PTX-BD4-3 binding to all of the 55 receptors in the screen.
(§9) (also on this page, place not known: 2B 5‐HT 3 5‐HT 5a 5‐HT 6 5‐HT 7 (agonis t VPAC 1 V 1 Ca 2+ K V SK Ca Na + Cl ‐ 5‐HT Disease Models & Mechanisms: doi:10.1242/dmm.044685: Supplementary information Disease Models & Mechanisms • Supplementary information)

The target of the next series is T2, A2A (h) (Homo sapiens, UniProt P29274).
T2 construct: purchased Cerep (ExpresSProfile)
T2 sequence (P29274 whole entry): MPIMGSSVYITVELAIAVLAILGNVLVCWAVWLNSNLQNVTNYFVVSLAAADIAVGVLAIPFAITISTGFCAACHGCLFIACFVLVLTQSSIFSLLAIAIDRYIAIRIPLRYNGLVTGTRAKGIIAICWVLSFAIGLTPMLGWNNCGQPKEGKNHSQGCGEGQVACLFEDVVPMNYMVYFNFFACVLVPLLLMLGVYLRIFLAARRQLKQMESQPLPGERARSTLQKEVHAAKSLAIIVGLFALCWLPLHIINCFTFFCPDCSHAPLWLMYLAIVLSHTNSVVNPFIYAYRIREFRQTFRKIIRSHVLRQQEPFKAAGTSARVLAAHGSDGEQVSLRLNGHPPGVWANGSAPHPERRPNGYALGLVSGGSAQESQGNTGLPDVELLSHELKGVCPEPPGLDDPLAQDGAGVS
Briefly: Cerep ExpresSProfile radioligand binding. As to conditions: 10 micromolar, agonist radioligand. As for the experimental part: as §1, §2, §3, §4, §5, §6, §7, §8, §9

For a further series, the system named is GABA (non-selective). Kind of series: Cerep ExpresSProfile radioligand binding. As to conditions: 10 micromolar; agonist radioligand. The procedure:
as §1, §2, §3, §4, §5, §6, §7, §8, §9

A further series addresses T3, H1 (h) (Homo sapiens, UniProt P35367).
T3 construct: purchased Cerep (ExpresSProfile)
Briefly: Cerep ExpresSProfile radioligand binding. As to conditions: 10 micromolar, antagonist radioligand. The procedure:
as §1, §2, §3, §4, §5, §6, §7, §8, §9

A further series concerns the target T4, M1 (h) (Homo sapiens, UniProt P11229).
T4 construct: purchased Cerep (ExpresSProfile)
T4 sequence (P11229 1-460): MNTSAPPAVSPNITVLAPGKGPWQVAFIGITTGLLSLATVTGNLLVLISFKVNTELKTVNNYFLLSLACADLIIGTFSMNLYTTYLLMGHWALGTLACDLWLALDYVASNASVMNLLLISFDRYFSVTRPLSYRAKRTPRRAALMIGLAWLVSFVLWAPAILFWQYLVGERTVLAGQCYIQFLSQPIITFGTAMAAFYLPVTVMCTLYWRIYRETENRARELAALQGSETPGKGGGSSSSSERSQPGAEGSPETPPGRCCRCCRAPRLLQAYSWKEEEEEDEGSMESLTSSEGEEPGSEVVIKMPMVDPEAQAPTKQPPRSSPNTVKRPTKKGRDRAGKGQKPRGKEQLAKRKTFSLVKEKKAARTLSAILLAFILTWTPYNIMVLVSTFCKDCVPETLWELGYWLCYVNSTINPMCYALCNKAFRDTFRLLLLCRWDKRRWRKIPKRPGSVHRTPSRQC
Kind of series: Cerep ExpresSProfile radioligand binding. As to conditions: 10 micromolar, antagonist radioligand. As for the experimental part: To evaluate the relative binding specificity of LM22A-4 ([Massa et al., 2010]) and PTX-BD4-3, binding to a broad range of 55 pharmacologically relevant receptors, including numerous neurotransmitter and G-protein coupled receptors was assessed using standard radioligand competition binding assays (ExpressSProfile) performed by Cerep, Inc. (Seattle, WA, USA). In addition, ADME-Tox analysis was performed by Cerep, Inc. All experimental conditions are described on the Cerep website (www.cerep.fr). […]
as §7, §8, §9

The test system of series [1] is heterozygous (Het) female Mecp2 mutant mice. Kind of series: Whole-body plethysmography (apnea index). The class given is in vivo, mouse. The procedure: Small-molecule compounds were diluted in saline and delivered by i.p. injection. To define the acute effects of single drug treatments, behavioral testing was initiated 1 h after dosing. Durable effects of single drug treatments were evaluated 24 h after dosing. To define the effects of repeated dosing, mice were treated once every 3 days (q72 h) for 4 or 8 weeks, and behavioral testing was performed 24 h after the last dose.
Breathing was recorded in unrestrained Wt and Het mice using a whole-body plethysmograph (EMMS Systems), in which a constant bias flow supply connected to the animal recording chamber ensured continuous inflow of fresh air (1 l/min) and ambient temperature was maintained between 23°C and 25°C. Animals were allowed to acclimate in the recording chambers for 30 min, and respiratory data were collected for the next 3 h. Because respiration is strongly influenced by behavioral state, data were only analyzed from periods of quiet breathing, which was defined as periods when the animal was not moving and had all four paws on the chamber floor. In most experiments, aggregated episodes of quiet breathing totaling at least 10 min were used for analysis. […] Apneas were defined as breathing pauses longer than 2× the average total breath duration (Ttot) measured during quiet breathing and are reported here as apneas/min (apnea index).

Series [2] can be described thus: Body weight / tolerability on chronic intermittent dosing. As to conditions: 8 weeks. The class given is in vivo. An excerpt: In light of evidence that deficits in BDNF expression and TrkB signaling contribute to neurological dysfunction in mouse models of RTT ([Katz, 2014]), we next examined whether or not chronic treatment of Mecp2 mutant mice with PTX-BD4-3 would ameliorate disease phenotypes. For these studies, we used heterozygous (Het) female Mecp2 mutants, which, unlike male null mice, model the somatic mosaicism for normal and mutant MeCP2 that characterizes the human disease ([Katz et al., 2012]). Animals were treated once every 3 days (5 mg/kg, i.p.), beginning at 16 weeks of age, and neurological phenotypes were assessed at various time points up to 8 weeks of dosing. All tests were performed 24 h after the last treatment. Phenotypic assessments included whole-body plethysmography to quantify apneic breathing, a core feature of respiratory dysfunction in RTT, as well as a motor test battery.
Figure S2. Repeated dosing with PTX-BD4-3 (5 mg/kg, q72 hrs) had no
effect on body weight in either Wt or Het mice.
Initial Week 2 Week 4 Week 6 Week 8
Body weight (g) Wt Saline Wt BD4‐3
Disease Models & Mechanisms: doi:10.1242/dmm.044685: Supplementary information
Disease Models & Mechanisms • Supplementary information […]

The mark [3] stands for this setting: read-out: % Inhibition of Control Specific Binding 1st.
Setting [4] is: read-out: % Inhibition of Control Specific Binding Mean.
Where [5] appears, read: read-out: % Inhibition of Control Specific Binding 2nd.

T3 sequence (P35367 whole entry): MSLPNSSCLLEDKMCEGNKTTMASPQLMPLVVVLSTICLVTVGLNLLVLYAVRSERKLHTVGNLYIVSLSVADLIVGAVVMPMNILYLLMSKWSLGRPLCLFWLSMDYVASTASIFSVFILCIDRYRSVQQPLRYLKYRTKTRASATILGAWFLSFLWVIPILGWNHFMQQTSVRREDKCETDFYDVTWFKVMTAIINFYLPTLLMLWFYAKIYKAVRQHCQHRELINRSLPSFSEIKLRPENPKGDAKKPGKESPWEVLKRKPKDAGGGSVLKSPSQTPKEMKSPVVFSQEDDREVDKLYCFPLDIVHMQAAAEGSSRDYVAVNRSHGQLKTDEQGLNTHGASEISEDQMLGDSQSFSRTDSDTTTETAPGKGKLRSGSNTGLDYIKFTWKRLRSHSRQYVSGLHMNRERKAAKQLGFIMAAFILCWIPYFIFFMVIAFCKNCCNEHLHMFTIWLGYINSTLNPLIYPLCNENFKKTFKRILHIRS
T1 sequence (P28223 whole entry): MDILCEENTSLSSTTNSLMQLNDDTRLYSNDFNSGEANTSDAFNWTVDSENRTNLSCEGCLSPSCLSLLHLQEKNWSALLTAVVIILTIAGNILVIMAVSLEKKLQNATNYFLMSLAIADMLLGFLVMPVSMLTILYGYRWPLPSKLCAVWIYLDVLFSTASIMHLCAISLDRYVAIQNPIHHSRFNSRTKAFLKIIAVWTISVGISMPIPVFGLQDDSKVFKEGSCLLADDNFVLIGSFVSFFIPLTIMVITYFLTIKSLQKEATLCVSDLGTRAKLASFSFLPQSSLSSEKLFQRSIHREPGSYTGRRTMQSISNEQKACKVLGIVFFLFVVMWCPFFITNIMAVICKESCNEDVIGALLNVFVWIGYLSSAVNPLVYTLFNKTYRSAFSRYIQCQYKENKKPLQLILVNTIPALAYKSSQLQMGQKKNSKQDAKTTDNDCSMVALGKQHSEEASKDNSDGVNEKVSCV

Regarding `COCCN(C)C(=O)c1cc(C(=O)N(C)CCOC)cc(C(=O)N(C)CCOC)c1` [PTX-BD4-3, benzene-1,3,5-tricarboxylic acid tris-[(2-methoxy-ethyl)-methyl-amide]], the inhibition at 10 µM was determined as 4.8% on 5-HT2A (h) (setting [3]); 0% at 5-HT2A (h) (setting [4]); 11.4% at A2A (h) (setting [3]); 30.1% at A2A (h) (setting [5]); 20.7% at A2A (h) (setting [4]); 5.8% at H1 (h) (setting [3]). The inhibition at 10 µM amounted to 5.2% at H1 (h) (setting [5]); 5.5% on H1 (h) (setting [4]); 5% at M1 (h) (setting [3]); 15% at M1 (h) (setting [5]); 10% at M1 (h) (setting [4]). For the same compound, the “% Inhibition of Control Specific Binding 1st” value in the series with GABA (non-selective) was found to be 16.5%. Besides, the “% Inhibition of Control Specific Binding 2nd” value with GABA (non-selective) stood at 19.1%. The “% Inhibition of Control Specific Binding Mean” value with GABA (non-selective) came out at 17.8%. Further, the apnea index result is recorded as “significantly reduced” in series [1] (Het mice, 5 mg/kg i.p. q72 h for 4 weeks, 24 h after last dose, vs saline-treated Het); “significantly reduced” in series [1] (Het mice, 5 mg/kg i.p. q72 h for 8 weeks, 24 h after last dose, vs saline-treated Het); “no change” in series [1] (single dose 5 mg/kg i.p., drug-naïve mice at 24 weeks of age, 24 h after dosing). In addition, in series [2] (5 mg/kg i.p. q72 h), the “tolerability of chronic intermittent dosing” value is reported as “well tolerated”. Also, in series [2] (Het mice, 5 mg/kg q72 h, vs saline-treated Het littermates), the body weight entry was “unchanged”.

Usually inhibition stands for the change of the read-out against control, counted positive when it falls.
